Measurements: patent publication US11224561B2, “Skin cleansing composition” (KAO CORPORATION, priority 2017, dated 2022)

Assays:
[1] = Detergency against keratotic plug during cleansing: penetration of the sample into keratotic plugs; set-up: species or system human; details: samples of Table 1, contact for 1 minute
Experimental: Keratotic plugs in the nasal region were removed with “Biore Nose Pack (manufactured by Kao Corporation)”, the resulting keratotic plugs on the pack were gently taken out with tweezers. […] Consequently, the sample entered into the gap between the slide glass and the cover glass by capillary phenomenon and was brought into contact with the keratotic plugs. The contact of the keratotic plugs and the sample was recorded with a digital microscope (VHX-5000, manufactured by Keyence Corporation, magnification: 150×), and the penetration of the sample into the keratotic plugs and the collapse state of the keratotic plugs were evaluated after one minute from the contact of the keratotic plugs with the sample. The results of each evaluation are shown in the columns “Keratotic plug detergency (penetration)” and “Keratotic plug detergency (during cleansing)” in Tables. The measurements were performed at 25° C. The penetration was relatively evaluated by criteria with 11 ratings from the rating 1 “the sample hardly penetrated into the keratotic plug” to the rating 11 “the sample penetrated to the center of the keratotic plug”. The collapsibility by the detergency against keratotic plug was relatively evaluated by criteria with 11 ratings from the rating 1 “almost no change is observed in the external appearance of the keratotic plug” to the rating 11 “peeling or separation is observed in the area from the surface layer to the central portion of the keratotic plug (the initial appearance of the keratotic plug is not retained)”.

[2] = Detergency against keratotic plug after washing with water: collapse state; set-up: species or system human; details: samples of Table 1, washing with water
Excerpt: The penetration was relatively evaluated by criteria with 11 ratings from the rating 1 “the sample hardly penetrated into the keratotic plug” to the rating 11 “the sample penetrated to the center of the keratotic plug”. The collapsibility by the detergency against keratotic plug was relatively evaluated by criteria with 11 ratings from the rating 1 “almost no change is observed in the external appearance of the keratotic plug” to the rating 11 “peeling or separation is observed in the area from the surface layer to the central portion of the keratotic plug (the initial appearance of the keratotic plug is not retained)”. After one minute from the contact of the keratotic plugs with the sample, Kimwipes (registered trademark) was brought into contact with an edge of the cover glass to remove the sample under the cover glass. […] The results of the evaluation are shown in the column “Keratotic plug detergency (during washing with water)” in Table. The measurements were performed at 25° C.

[3] = at 25° C.; cited from earlier work
[4] = Detergency against keratotic plug during cleansing: collapse state of keratotic plugs; set-up: species or system human; details: samples of Table 1, contact for 1 minute
Experimental: Keratotic plugs in the nasal region were removed with “Biore Nose Pack (manufactured by Kao Corporation)”, the resulting keratotic plugs on the pack were gently taken out with tweezers.
The resulting keratotic plugs were placed on a slide glass and were covered with a cover glass, and 0.05 mL of a sample was dropwise added to an edge of the cover glass. Consequently, the sample entered into the gap between the slide glass and the cover glass by capillary phenomenon and was brought into contact with the keratotic plugs. The contact of the keratotic plugs and the sample was recorded with a digital microscope (VHX-5000, manufactured by Keyence Corporation, magnification: 150×), and the penetration of the sample into the keratotic plugs and the collapse state of the keratotic plugs were evaluated after one minute from the contact of the keratotic plugs with the sample. The results of each evaluation are shown in the columns “Keratotic plug detergency (penetration)” and “Keratotic plug detergency (during cleansing)” in Tables. The measurements were performed at 25° C.
The penetration was relatively evaluated by criteria with 11 ratings from the rating 1 “the sample hardly penetrated into the keratotic plug” to the rating 11 “the sample penetrated to the center of the keratotic plug”. The collapsibility by the detergency against keratotic plug was relatively evaluated by criteria with 11 ratings from the rating 1 “almost no change is observed in the external appearance of the keratotic plug” to the rating 11 “peeling or separation is observed in the area from the surface layer to the central portion of the keratotic plug (the initial appearance of the keratotic plug is not retained)”.

[5] = tested on: insoluble protein (seine protein); assay: Effect of suppressing protein aggregation (precipitation of insoluble protein); details: sample of Table 1
Experimental: Thirty milliliters of a sample and 0.06 g of an insoluble protein (seine protein) were placed in a 35-mL standard glass bottle, and the concentration of the insoluble protein was adjusted to 0.2 mass % (test sample). Separately, a standard sample was prepared by using water instead of the sample and adjusting the concentration of the insoluble protein to 0.2 mass %. Subsequently, the standard glass bottles were sufficiently shaken and stirred up and down (shake width: 15 cm, 20 times at a rate of 5 times for 3 seconds) in a thermostatic chamber of 25° C. and were left to stand for 3 minutes. The precipitation state of the insoluble protein was then visually verified, and the ratio of the amount of the precipitated standard sample to the amount of the precipitated test sample (the height of the precipitate in each standard glass bottle was measured as the precipitation amount), (precipitation amount of standard sample)/(precipitation amount of test sample), was calculated. A higher ratio indicates a higher effect of suppressing protein aggregation.

CC(N)(CO)CO [AMPD, 2-amino-2-methyl-1,3-propanediol]
penetration of the sample into keratotic plugs (in words) [1]: penetrated into keratotic plugs
swelling of sample-treated keratotic plugs on contact with water (in words) [2]: swelled when contacted with water

CC(C)(N)CO [Component (X3)]
pKa [3]: 9.72

O=P([O-])([O-])O.[Na+].[Na+] [disodium hydrogen phosphate]
collapse of keratotic plugs in contact with the sample (in words) [4]: the collapse of the keratotic plugs did not progress
penetration of the sample into keratotic plugs (in words) [1]: hardly penetrated into keratotic plugs
swelling of sample-treated keratotic plugs on contact with water (in words) [2]: did not swell even when contacted with water

O=C([O-])O.[Na+] [sodium hydrogen carbonate]
collapse of keratotic plugs in contact with the sample (in words) [4]: the collapse of the keratotic plugs did not progress
penetration of the sample into keratotic plugs (in words) [1]: hardly penetrated into keratotic plugs
swelling of sample-treated keratotic plugs on contact with water (in words) [2]: did not swell even when contacted with water

O=P([O-])([O-])[O-].[Na+].[Na+].[Na+] [trisodium phosphate]
collapse of keratotic plugs in contact with the sample (in words) [4]: the collapse of the keratotic plugs did not progress
penetration of the sample into keratotic plugs (in words) [1]: hardly penetrated into keratotic plugs
swelling of sample-treated keratotic plugs on contact with water (in words) [2]: did not swell even when contacted with water

sodium polyoxyethylene (2) lauryl ether sulfate [POE (2) sodium lauryl sulfate]
collapse of keratotic plugs in contact with the sample (in words) [4]: the collapse of the keratotic plugs did not progress
action on proteins (in words) [5]: the action on proteins was strong to dissolve the proteins
penetration of the sample into keratotic plugs (in words) [1]: hardly penetrated into the keratotic plugs
